From patent US20260356824A1, “COMPOUNDS FOR TREATING FIBROTIC DISEASES” (Meta-Immue Inc., priority 2023, published 2026)

Key:
hLPAR1 = target: T1, hLPAR1 (Homo sapiens, UniProt Q92633); experiment: Ca2+ Flux Assay (B103 cells stably expressing hLPAR1); type: cell-based; conditions: LPA-induced calcium release, Fura-2 AM, compound 20 min at RT
T1 construct: expressed in transfected cells
Procedure: B103 cells stably expressing hLPAR1 were seeded at a density of 1.0×10^5 cells per well in clear flat-bottom black 96-well plates and incubated overnight in complete media. The following day, the cells were pre-incubated in serum-free media for 2 hours prior to ensure cellular equilibration. For the loading a calcium-sensitive fluorescent dye, the cells were treated with a concentration of 5 μM Fura-2 AM dye (Sigma, F1225) in Hank's buffered salt solution (HBSS) supplemented with 20 mM HEPES, […], and 0.3% fatty-acid-free bovine serum albumin for 40 minutes at room temperature (RT). Test compounds, prepared in DMSO, were then added to each well and incubated for 20 minutes at RT. To induce calcium release, a concentration of […] in HBSS supplemented with 20 mM HEPES, and 0.3% fatty-acid-free bovine serum albumin was introduced. Intracellular calcium mobilization was subsequently quantified by monitoring the fluorescence intensity using the Spark® multimode microplate reader (TECAN).

A2058 cells = experiment: Chemotaxis Assay (LPA-induced migration of A2058 cells); type: cell-based; conditions: Homo sapiens, 4 to 8 hours, crystal violet 590 nm
Procedure: For monitoring the migration of cells, Neuroprobe ChemoTx® System plates ([…], 5.7 mm diameter sites; Gaithersburg, MD, USA) were utilized. To induce cell migrations, a concentration of […] or vehicle in DMEM were loaded to the bottom chamber. A total of 15,000 A2058 cells, which were starved for 24 hr following treated with test compounds or vehicle, were then applied to the upper membrane coated with 0.001% fibronectin. The plate was incubated for 4 to 8 hours to allow cell migration. Following incubation, the plate was dissembled, and the migrated cells were visualized by crystal violet staining. The stained area with crystal violet was quantified by measuring the absorbance at 590 nm and the relative percentage of the control was calculated.

BSEP = target: T2, BSEP (Homo sapiens, UniProt O95342); experiment: Bile Salt Export Pump (BSEP) Assay, Sf9 insect cell vesicles expressing BSEP; type: in vitro ADME; conditions: 10 μM test compound, probe substrate 1 μM [3H]-taurocholic acid, 15 min incubation
T2 construct: ATP-dependent uptake of radiolabelled probe substrate
Procedure: • 1. A stock solution was prepared with the test article (Sponsor compound) in DMSO. • 2. All final assay solutions of probe substrate, reference inhibitor or test article contain 0.5% (v/v) DMSO (vehicle control). • 3. Test article concentrations in transport study were specified in the Summary Table of Experimental Conditions of this protocol.
• 1. Bovine Serum Albumin (BSA) • 2. Dimethyl sulfoxide (DMSO) • 3. BSEP Assay Uptake Buffer (10 mM HEPES-Tris pH 7.4, 0.1 M KNO3, 12.5 mM Mg(NO3)2, 50 mM sucrose) • 4. BSEP Wash Buffer (10 mM Tris-HCl pH 7.4, 0.1 M KNO3, 50 mM sucrose) • 5. BSEP Blocking Buffer (BSEP Wash Buffer+0.5 mg/mL BSA) • 6. 25 mM Mg-ATP solution • 7. 25 mM AMP solution • 8. Corning Costar 96-well flat-bottom, untreated, white Assay Plate (Corning Cat. No. 3912) • 9. Millipore MultiscreenHTs Filtration Plate, glass fiber FB—1.0/0.65 μm (Cat. No. MSFBN6B10 or glass fiber FC—1.2/0.65 μm (Cat. No. MSFCN6B10) • 10. Millipore MultiscreenHTS Vacuum Manifold (Cat. No. MSVMHTS00) • 11. Probe substrates listed in Table 1 • 12. Reference inhibitors listed in Table 1 • 13. Test articles
• 1. Test system: • a. 96-well flat bottom plate containing a suspension of vesicles and a corresponding 96-well glass fiber filtration plate. • b. Transport experiments were conducted in the Assay Uptake Buffer. • c. Transport experiment was initiated with the addition of Mg-ATP or AMP to appropriate wells. • d. Each condition was run in triplicate wells. • 2. Prepared the 96-well flat-bottom assay plate. • a. Incubated the assay plate with the Blocking Buffer for 60 min at 37 °C with orbital shaking at approximately 90 rpm. (NOTE: This is done to prevent non-specific binding of vesicles to polystyrene assay plate). • b. After 60 min, completely removed the Blocking Buffer from the assay plate. • c. The Assay Uptake Buffer solutions were added to the assay plate wells as follows: • i. For probe substrate transport assays, the Assay Uptake Buffer contained vesicles and the probe substrate at the specified concentration. • ii. For the reference inhibition assay, the Assay Uptake Buffer contained vesicles, the reference inhibitor and the probe substrate at the specified concentration in Table 1. • iii. For the test article assays, Assay Uptake Buffer contained vesicles, the test article and the probe substrate at the specified concentration in Table 1. • 3. Incubate at 37 °C with orbital shaking at approximately 90 rpm for the time period specified in Table 1 of this protocol. • 4. Using the 25 mM Mg-ATP or AMP stocks, Mg-ATP or AMP was added to test wells of flat bottom assay plate to a final concentration of 5 mM. • 5. Incubated at 37 °C with orbital shaking at approximately 90 rpm for the incubation time specified in Table 1 of this protocol. • 6. Prepared the 96-well glass fiber filtration plate: • a. Incubated the filtration plate with the Blocking Buffer for 2 min at room temperature with under no vacuum. • b. Turned on vacuum and allowed Blocking Buffer to filter through plate. • c. With vacuum on, filter plate was washed with ice cold Wash Buffer. • 7. At the end of the specified incubation time indicated in […] of this protocol, vesicle transport was quenched by adding ice cold Wash Buffer to samples in 96-well assay plate. • 8. Mixed assay samples (now diluted in Wash Buffer) with pipette and transfered 175 μL into the 96-well glass fiber filtration plate to separate vesicles from buffer by applying vacuum. • 9. Washed filter plate wells with ice cold Wash Buffer. • 10. Allowed filter plate to dry under vacuum. • 11. Transfered filters to scintillation sample plate and added 700 μL of scintillation fluid to the above samples. • 12. Counted the above samples on a 1450 Microbeta (Perkin-Elmer).
• 1. The amount of substrate was quantified with radiometric detection on a 1450 Microbeta (Perkin-Elmer). • 2. For transport study samples run in triplicate, the mean and standard deviation of the replicates were reported. • 3. […]

T2 sequence (O95342 whole entry): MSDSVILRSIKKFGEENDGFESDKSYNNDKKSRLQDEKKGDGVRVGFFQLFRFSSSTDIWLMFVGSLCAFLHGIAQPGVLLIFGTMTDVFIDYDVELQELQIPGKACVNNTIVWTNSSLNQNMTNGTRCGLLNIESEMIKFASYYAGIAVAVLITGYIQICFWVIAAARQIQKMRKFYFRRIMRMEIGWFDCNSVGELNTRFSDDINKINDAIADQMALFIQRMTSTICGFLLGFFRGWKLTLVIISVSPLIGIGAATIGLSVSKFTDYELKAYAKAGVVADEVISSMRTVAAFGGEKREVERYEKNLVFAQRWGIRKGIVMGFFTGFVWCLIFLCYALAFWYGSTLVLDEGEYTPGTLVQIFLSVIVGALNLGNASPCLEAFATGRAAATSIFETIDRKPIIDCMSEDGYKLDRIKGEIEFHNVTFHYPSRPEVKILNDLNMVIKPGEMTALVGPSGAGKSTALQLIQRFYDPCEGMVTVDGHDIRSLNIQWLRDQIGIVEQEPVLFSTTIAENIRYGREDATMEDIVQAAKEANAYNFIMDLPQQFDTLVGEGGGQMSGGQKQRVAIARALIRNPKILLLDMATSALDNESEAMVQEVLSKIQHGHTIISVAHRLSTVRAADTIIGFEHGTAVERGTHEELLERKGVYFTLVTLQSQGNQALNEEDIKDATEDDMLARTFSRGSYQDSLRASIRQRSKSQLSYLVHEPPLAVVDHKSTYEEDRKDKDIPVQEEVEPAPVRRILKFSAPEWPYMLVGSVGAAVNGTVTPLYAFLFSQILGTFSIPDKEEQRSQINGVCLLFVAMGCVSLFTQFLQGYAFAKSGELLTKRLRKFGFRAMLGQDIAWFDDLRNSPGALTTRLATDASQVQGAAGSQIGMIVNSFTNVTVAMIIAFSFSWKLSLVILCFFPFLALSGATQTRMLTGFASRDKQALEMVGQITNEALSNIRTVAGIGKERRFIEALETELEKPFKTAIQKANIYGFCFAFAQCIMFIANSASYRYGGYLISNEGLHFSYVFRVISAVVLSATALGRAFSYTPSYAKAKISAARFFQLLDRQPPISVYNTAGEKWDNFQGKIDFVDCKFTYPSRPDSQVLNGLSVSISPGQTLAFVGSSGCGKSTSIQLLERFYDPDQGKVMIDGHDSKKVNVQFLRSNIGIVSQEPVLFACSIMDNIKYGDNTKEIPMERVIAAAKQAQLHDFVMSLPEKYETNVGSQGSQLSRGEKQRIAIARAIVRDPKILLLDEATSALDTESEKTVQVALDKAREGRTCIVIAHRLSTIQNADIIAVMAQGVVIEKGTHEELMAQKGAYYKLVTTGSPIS
T1 sequence (Q92633 whole entry): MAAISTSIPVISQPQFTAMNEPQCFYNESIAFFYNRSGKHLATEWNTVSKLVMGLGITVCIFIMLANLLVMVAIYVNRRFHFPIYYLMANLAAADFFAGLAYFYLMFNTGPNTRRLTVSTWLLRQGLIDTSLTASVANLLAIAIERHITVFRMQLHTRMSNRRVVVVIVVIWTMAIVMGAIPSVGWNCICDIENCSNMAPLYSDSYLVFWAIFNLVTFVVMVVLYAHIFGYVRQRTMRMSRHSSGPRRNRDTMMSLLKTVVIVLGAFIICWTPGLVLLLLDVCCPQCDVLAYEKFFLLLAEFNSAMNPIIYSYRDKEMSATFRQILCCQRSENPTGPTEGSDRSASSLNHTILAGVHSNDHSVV

Compound | IC50 (hLPAR1) [nM] | IC50 (A2058 cells) [nM] | inhibition at 0.25 h, 10 µM (BSEP) [%]
Cc1noc(C2CCN(c3ccc(C4(C(=O)NS(=O)(=O)CC(C)CO)CC4)cc3)CC2)c1NC(=O)O[C@H](C)c1ccccc1 (stereo partly drawn) [Compound 79, (1R)-1-phenylethyl N-{5-[1-(4-{1-[(3-hydroxy-2-methylpropanesulfonyl)carbamoyl]cyclopropyl}phenyl)piperidin-4-yl]-3-methyl-1,2-oxazol-4-yl}carbamate] | < 10 | < 100 | 25 to 50
Cc1noc(C2CCN(c3ccc(C4(C(=O)NS(=O)(=O)C(C)CC(=O)O)CC4)cc3)CC2)c1NC(=O)O[C@H](C)c1ccccc1 (stereo partly drawn) [Compound 72] | < 10 | < 100 | ≤ 25
Cc1cc(C2(C(=O)O)CC2)ccc1N1CCC(c2onc(C)c2NC(=O)O[C@H](C)c2ccccc2)CC1 [Compound 61] | < 10 | < 100 | 50 to 75
C[C@@H](OC(=O)Nc1ccsc1C1CCN(c2ccc(C3(C(=O)O)CC3)cc2)CC1)c1ccccc1 [Compound 93] | 10 to 200 | < 100 | 50 to 75
CCc1ccccc1[C@@H](C)OC(=O)Nc1c(C)noc1C1CCN(c2ccc(C3(C(=O)NS(=O)(=O)CCC(=O)O)CC3)cc2)CC1 [Compound 37, 3-({[1-(4-{4-[4-({[(1R)-1-(2-ethylphenyl)ethoxy]carbonyl}amino)-3-methyl-1,2-oxazol-5-yl]piperidin-1-yl}phenyl)cyclopropyl]formamido}sulfonyl)propanoic acid] | < 10 | < 100 | 50 to 75
Cc1ccccc1[C@@H](C)OC(=O)Nc1c(C)noc1C1CC2(C1)CN(c1ccc(C3(C(=O)NS(C)(=O)=O)CC3)cc1)C2 [Compound 7] | < 10 | < 100 | 75 to 100
Cc1noc(C2CCN(c3ccc(C4(C(=O)O)CC4)cc3)CC2)c1NC(=O)O[C@H](C)c1ccccc1Cl [Compound 74, 1-(4-{4-[4-({[(1R)-1-(2-chlorophenyl)ethoxy]carbonyl}amino)-3-methyl-1,2-oxazol-5-yl]piperidin-1-yl}phenyl)cyclopropane-1-carboxylic acid] | < 10 | < 100 | 50 to 75
Cc1noc(C2CC3(C2)CN(c2ccc(C4(C(=O)NS(C)(=O)=O)CC4)cc2)C3)c1NC(=O)O[C@H](C)c1ccccc1 [Compound 9] | < 10 | 100 to 500 | 50 to 75
C[C@@H](OC(=O)Nc1c(C2CCN(c3ccc(C4(C(=O)O)CC4)cc3)CC2)nnn1C)c1ccccc1 [Compound 60, (R)-1-(4-(4-(1-methyl-5-(((1-phenylethoxy)carbonyl)amino)-1H-1,2,3-triazol-4-yl)piperidin-1-yl)phenyl)cyclopropane-1-carboxylic acid] | 10 to 200 | 100 to 500 | ≤ 25
C[C@@H](OC(=O)Nc1c(C2CCN(c3ccc(C4(C(=O)NS(=O)(=O)CCO)CC4)cc3)CC2)nnn1C)c1ccccc1 [Compound 59] | < 10 | 100 to 500 | ≤ 25
COc1cc(C2(C(=O)O)CC2)ccc1N1CCC(c2onc(C)c2NC(=O)O[C@H](C)c2ccccc2)CC1 [Compound 63, (R)-1-(3-methoxy-4-(4-(3-methyl-4-(((1-phenylethoxy)carbonyl)amino)isoxazol-5-yl)piperidin-1-yl)phenyl)cyclopropane-1-carboxylic acid] | < 10 | < 100 | ≤ 25
C[C@@H](OC(=O)Nc1c(C2CCN(c3ccc(C4(C(=O)NS(=O)(=O)CC(=O)O)CC4)cc3)CC2)nnn1C)c1ccccc1 [Compound 58, 2-[[1-[4-[4-[1-methyl-5-[[(1R)-1-phenylethoxy]carbonylamino]triazol-4-yl]-1piperidyl]phenyl]cyclopropanecarbonyl]sulfamoyl]acetic acid] | 10 to 200 | 100 to 500 | ≤ 25
Cc1noc(C2CCN(c3ccc(C4(C(=O)O)CC4)cc3)CC2)c1C(O)CCCc1ccccc1 (stereo not drawn) [Compound 20] | 10 to 200 | 100 to 500 | 75 to 100
